# Reference: PubChem BioAssay AID1963443 (Molecular Pharmacology Branch, DTP, NCI, 2024)
# Tested on: MDA-MB-231 complex spheroids, growth inhibition
# Assay: Anticancer human tumor MDA-MB-231 cell line growth inhibition [Asc];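 further: spheroids exposed to compounds for 7 days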
# Settings: for IC50: curve of first compound; for viability, T/C: stronger effect = lower value
# Method in brief: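 Tumor cells were grown as complex spheroids with human endothelial cells (HUVEC) and human mesenchymal stem cells as stroma. Agents were tested alone and in combination, in half-log steps down from the clinical Cmax, or from 10 microM where Cmax was unknown.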
smiles,measurement,setting,value
NC(=O)C(=Cn1cnc(-c2cc(C(F)(F)F)cc(C(F)(F)F)c2)n1)c1cncnc1 + CNC(C)C(=O)NC1CN(S(=O)(=O)c2cccc(S(=O)(=O)N3CCC4CCC(C(=O)NC(c5ccccc5)c5ccccc5)N4C(=O)C(NC(=O)C(C)NC)C3)c2)CCC2CCC(C(=O)NC(c3ccccc3)c3ccccc3)N2C1=O,IC50,second compound 0.01 µM,< 0.949 nM
same,IC50,second compound 0.0316 µM,< 0.949 nM
same,IC50,second compound 0.1 µM,< 0.949 nM
same,IC50,second compound 0.316 µM,< 0.949 nM
same,IC50,second compound 1 µM,< 0.949 nM
same,"viability, T/C","second compound 0.01 µM, first compound 0.000949 µM",3.47%
same,"viability, T/C","second compound 0.01 µM, first compound 0.003 µM",3.32%
same,"viability, T/C","second compound 0.01 µM, first compound 0.00949 µM",2.92%
same,"viability, T/C","second compound 0.01 µM, first compound 0.03 µM",3.34%
same,"viability, T/C","second compound 0.01 µM, first compound 0.0949 µM",3.01%
same,"viability, T/C","second compound 0.01 µM, first compound 0.3 µM",1.3%
same,"viability, T/C","second compound 0.0316 µM, first compound 0.000949 µM",1.67%
same,"viability, T/C","second compound 0.0316 µM, first compound 0.003 µM",1.38%
same,"viability, T/C","second compound 0.0316 µM, first compound 0.00949 µM",1.57%
same,"viability, T/C","second compound 0.0316 µM, first compound 0.03 µM",1.39%
same,"viability, T/C","second compound 0.0316 µM, first compound 0.0949 µM",1.1%
same,"viability, T/C","second compound 0.0316 µM, first compound 0.3 µM",0.42%
same,"viability, T/C","second compound 0.1 µM, first compound 0.000949 µM",1.05%
same,"viability, T/C","second compound 0.1 µM, first compound 0.003 µM",1.72%
same,"viability, T/C","second compound 0.1 µM, first compound 0.00949 µM",1.5%
same,"viability, T/C","second compound 0.1 µM, first compound 0.03 µM",1.76%
same,"viability, T/C","second compound 0.1 µM, first compound 0.0949 µM",0.66%
same,"viability, T/C","second compound 0.1 µM, first compound 0.3 µM",0.29%
same,"viability, T/C","second compound 0.316 µM, first compound 0.000949 µM",1.29%
same,"viability, T/C","second compound 0.316 µM, first compound 0.003 µM",1.22%
same,"viability, T/C","second compound 0.316 µM, first compound 0.00949 µM",1.39%
same,"viability, T/C","second compound 0.316 µM, first compound 0.03 µM",1.21%
same,"viability, T/C","second compound 0.316 µM, first compound 0.0949 µM",0.77%
same,"viability, T/C","second compound 0.316 µM, first compound 0.3 µM",0.57%
same,"viability, T/C","second compound 1 µM, first compound 0.000949 µM",0.82%
same,"viability, T/C","second compound 1 µM, first compound 0.003 µM",1.08%
same,"viability, T/C","second compound 1 µM, first compound 0.00949 µM",1.07%
same,"viability, T/C","second compound 1 µM, first compound 0.03 µM",0.91%
same,"viability, T/C","second compound 1 µM, first compound 0.0949 µM",0.91%
same,"viability, T/C","second compound 1 µM, first compound 0.3 µM",0.37%
